From ChEMBL document CHEMBL1124087, “Chemistry and positive inotropic effect of pelrinone and related derivatives. A novel class of 2-methylpyrimidones as inotropic agents” (J Med Chem, 1988) come the findings set out here.

Where “and” joins values, the source holds several entries; their conditions need not be identical. Identical values can stand only once. A value given as a limit tells only on which side of the number the result lay.

One may read the IC50 as the midpoint of a concentration-inhibition curve. Read a high IC50 as a need for much substance. As a reminder, the ED50 is the midpoint of the dose-response relation. A low value points to an effect at a small dose.

The species entered for assay [1] is Felis catus. As to the kind of experiment: The inotropic activity was assayed in vitro in cat papillary muscle. Type of assay: functional, Muscle tissue.
The nature of assay [2]: (§1) Inhibition of crude bovine cardiac phosphodiesterase. Type of assay: functional, Bos taurus.
Assay [3] deals with Phosphodiesterase 3B (Bos taurus, UniProt E1BN64). The assay is described as follows: (§2) Inhibition of bovine cardiac phosphodiesterase fraction III.
Chain of Phosphodiesterase 3B (E1BN64 whole entry): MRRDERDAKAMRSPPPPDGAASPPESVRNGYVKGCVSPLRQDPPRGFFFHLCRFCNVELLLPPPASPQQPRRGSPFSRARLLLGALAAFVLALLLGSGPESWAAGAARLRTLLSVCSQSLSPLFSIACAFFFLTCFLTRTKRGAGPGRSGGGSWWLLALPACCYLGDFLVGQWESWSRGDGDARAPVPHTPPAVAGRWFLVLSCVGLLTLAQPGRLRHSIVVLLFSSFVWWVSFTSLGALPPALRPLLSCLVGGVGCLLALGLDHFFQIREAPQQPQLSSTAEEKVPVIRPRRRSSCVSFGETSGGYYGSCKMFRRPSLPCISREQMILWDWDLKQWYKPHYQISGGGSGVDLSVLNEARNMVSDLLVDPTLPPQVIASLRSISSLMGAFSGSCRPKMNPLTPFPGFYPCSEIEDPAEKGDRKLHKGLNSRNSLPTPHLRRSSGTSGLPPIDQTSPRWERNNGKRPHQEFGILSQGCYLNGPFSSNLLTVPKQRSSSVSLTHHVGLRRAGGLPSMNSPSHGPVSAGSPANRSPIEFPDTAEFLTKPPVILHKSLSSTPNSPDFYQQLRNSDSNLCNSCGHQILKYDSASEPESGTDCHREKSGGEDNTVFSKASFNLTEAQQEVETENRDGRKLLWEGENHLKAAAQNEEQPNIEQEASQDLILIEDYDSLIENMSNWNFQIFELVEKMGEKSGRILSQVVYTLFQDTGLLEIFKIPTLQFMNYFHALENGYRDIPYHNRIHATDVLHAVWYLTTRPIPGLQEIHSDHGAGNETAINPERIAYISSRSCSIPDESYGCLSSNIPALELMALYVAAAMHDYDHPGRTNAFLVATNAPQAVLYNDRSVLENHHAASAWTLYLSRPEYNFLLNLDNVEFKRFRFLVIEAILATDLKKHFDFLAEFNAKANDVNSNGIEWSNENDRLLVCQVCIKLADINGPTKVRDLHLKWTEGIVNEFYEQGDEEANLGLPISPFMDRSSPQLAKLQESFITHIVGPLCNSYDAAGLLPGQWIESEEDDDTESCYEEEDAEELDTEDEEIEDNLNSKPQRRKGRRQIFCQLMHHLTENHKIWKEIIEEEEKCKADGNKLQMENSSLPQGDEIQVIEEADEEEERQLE
Assay [4] concerns Canis familiaris. The assay is described as follows: Inotropic effect in anesthetized dogs. As to conditions: Canis lupus familiaris; call rule not given here. Type of assay: functional.
Assay [5] concerns Canis familiaris. The assay is described as follows: (§3) Reduced arterial blood pressure after Id administration in dogs with pentobarbital-induced heart failure. Type of assay: functional. The settings on record: Canis lupus familiaris.
The nature of assay [6]: as §2. Further details: species or system Bos taurus.
Assay [7] is filed under the species Felis catus. The assay is described as follows: Chronotropic effects were assayed in vitro in the isolated right artium of the cat. Type of assay: functional.
The species entered for assay [8] is Canis familiaris. The assay is described as follows: (§4) Ratio of Chronotropic (C) EC50 to inotropic (I) EC50. Type of assay: functional, Canis lupus familiaris.
Assay [9] concerns Canis familiaris. The description is as §3. Type of assay: functional. The settings on record: Canis lupus familiaris. This is another data set of the same source.
Assay [10] is filed under the species Felis catus. The assay is described as follows: In vitro inotropic effect in cat papillary muscle. Type of assay: functional.
Assay [11] can be described thus: as §1. Details: species or system Bos taurus.
For assay [12], the system named is Canis familiaris. The assay is described as follows: Inotropic effect in the dogs with pentobarbtial-induced heart failure, id administration. Type of assay: functional. As to conditions: Canis lupus familiaris.
Assay [13] relates to Canis familiaris. As to the kind of experiment: Inotropic effect in dogs with pentobarbitial-induced heart failure, iv administration. The settings on record: Canis lupus familiaris. Type of assay: functional.
The species named for assay [14] is Felis catus. The assay is described as follows: Ratio of Chronotropic (C) EC50 to inotropic (I) EC50.
For assay [15], the species on record is Felis catus. As to the kind of experiment: In vitro inotropic effect in cat papillary muscle (Inactive). Type of assay: functional, Muscle tissue.
For assay [16], the species on record is Felis catus. As to the kind of experiment: In vitro chronotropic effect in right artium of cat (Inactive). Type of assay: functional.
Assay [17] relates to Canis familiaris. The description is as §3. Type of assay: functional. As to conditions: Canis lupus familiaris. This is another data set of the same source.
In assay [18] the test system is Canis familiaris. As to the kind of experiment: Inotropic effect in dogs with pentobarbtial-induced heart failure, iv administration. Type of assay: functional. The settings on record: Canis lupus familiaris.
The test system of assay [19] is Canis familiaris. As to the kind of experiment: Inotropic effect in dogs with pentobarbital-induced heart failure, iv administration. Type of assay: functional. As to conditions: Canis lupus familiaris.
For assay [20], the species on record is Felis catus. Described as §4. Type of assay: functional.
The species named for assay [21] is Canis familiaris. The assay is described as follows: (§5) ED20/ED50 ratio (BP/ inotropic) of the compound. Type of assay: functional, Canis lupus familiaris.
The species named for assay [22] is Canis familiaris. The assay is described as §5. Type of assay: functional, Canis lupus familiaris. The source holds these as a separate data set.
Assay [23] deals with Canis familiaris. Described as §3. Type of assay: functional. As to conditions: Canis lupus familiaris. This is another data set of the same source.
[24] abbreviates: Felis catus, Muscle tissue, read-out: EC50.

Turning to `O=C1CCC(c2ccc(-n3ccnc3)cc2)=NN1` [IMAZODAN], the EC50 in assay [1] (setting [24]) was 7 µM. In addition, the IC50 turned out to be 145 µM in [2] and 94 µM in assay [3]. For the same compound, it took a dose of 0.08 mg/kg to reach the 50% effect level in [4] (ED50).
`Cc1nc(=O)c(C#N)c(NCc2cccnc2)[nH]1` [PELRINONE]: the ED20 in [5] was 0.12 mg/kg; in [9] it was greater than 3 mg/kg. Besides, the IC50 in [6] worked out at 36 µM; in assay [11], 76 µM. Besides, the EC50 is 5.9 µM in assay [1] (setting [24]), 212 uM l-1 in assay [7] and 5 µM in assay [10]. The Ratio in [8] stood at 36. Moreover, the 50% effective dose (ED50) worked out at 0.03 mg/kg in [4], 0.2 mg/kg in [12] and 0.033 mg/kg in assay [13].
For the compound `Cc1nc(O)c(Cl)c(NCCc2ccccc2)n1`, the figures for the EC50 in [1] (setting [24]) and in assay [7] were 1.2 µM and greater than 1000 uM l-1, respectively. Moreover, the Ratio in assay [14] is greater than 833.
Turning to `COc1nc(C)nc(NCc2cccnc2)c1C#N`, the EC50 entry in [15] and in assay [16] was “Not Active” in each case.
Turning to `Cc1nc(O)c(Br)c(NCCc2ccccc2)n1`, the figures for the ED20 in [5] and in assay [17] were less than 0.01 mg/kg and greater than 1 mg/kg, respectively. In addition, the EC50 in assay [1] (setting [24]) is 6.1 µM; in assay [7], greater than 1000 uM l-1. The 50% effective dose (ED50) in [18] is 0.029 mg/kg; in assay [12], greater than 1 mg/kg. Further, in assay [14], the Ratio is reported as greater than 164.
As to `CCNc1nc(C)nc(O)c1Br`, the ED20 in assay [5] is less than 0.003 mg/kg; in [23] it was 0.05 mg/kg. Further, the IC50 in assay [6] was 38 µM. The EC50 in assay [1] (setting [24]) is 4.1 µM; in assay [1] (read-out: EC50) it was 2.8 µM; in [7] it was 420 uM l-1. For the same compound, the figures for the 50% effective dose (ED50) in assay [19], in [4] and in assay [12] were 0.01 mg/kg, 0.01 mg/kg and 0.03 mg/kg, respectively. Also, the figures for the Ratio in assay [20], in assay [21] and in assay [22] were 102, 1.6 and less than 0.3, respectively.
For `Cc1nc(O)c(C(N)=O)c(NCc2cccnc2)n1`, the EC50 entry in assay [15] and in assay [16] was “Not Active” throughout.
As to `Cc1nc(O)c(C#N)c(NCc2ccccn2)n1`, the EC50 was 43 µM in assay [1] (setting [24]) and 180 uM l-1 in assay [7]. Also, the Ratio in [14] is reported as 4.
The corresponding values for `CSc1ccc(C(=O)c2[nH]c(=O)[nH]c2C)cc1` [ENOXIMONE] are 90 µM, 200 uM l-1 and 2.2.
For `Cc1nc(O)c(C#N)c(NCCc2cccnc2)n1`, the results for the EC50 in assay [1] and in assay [7] were 230 uM l-1 and 300 uM l-1, respectively. Also, the Ratio in assay [14] worked out at 1.3.
Regarding `N#Cc1c(O)ncnc1NCc1cccnc1`, the EC50 result in [15] and in assay [16] was “Not Active” throughout.
For the compound `Cc1nc(O)c(C#N)c(NCCc2ccccc2)n1`, the ED20 in [5] stood at 0.027 mg/kg; in assay [17], 0.3 mg/kg. For the same compound, the EC50 in assay [1] (setting [24]) is 20 µM; in assay [7], greater than 1000 uM l-1. Moreover, the ED50 came out at 0.22 mg/kg in assay [12] and 0.07 mg/kg in assay [13]. In addition, in assay [14], the Ratio is greater than 50.
For `CNc1nc(C)nc(NCc2cccnc2)c1C#N`, the EC50 entry in assay [15] and in assay [16] was “Not Active” each time.
For the compound `Cc1nc(O)c(Br)c(NCc2cccnc2)n1`, the ED20 amounted to 0.041 mg/kg in [5] and 0.1 mg/kg in [17]. For the same compound, the IC50 in assay [6] is 15 µM; in assay [11], 35 µM. In addition, the values for the EC50 in assay [1] (setting [24]), in [7] and in assay [10] were 3.9 µM, 380 uM l-1 and 2.5 µM, respectively. Also, the ED50 came out at 0.018 mg/kg in assay [19], 0.012 mg/kg in assay [4] and 0.022 mg/kg in assay [12]. Also, the Ratio in [20] is 97; in assay [21], 2.3 and 4.5.
Regarding `CC(C)(C)c1nc(O)c(C#N)c(NCc2cccnc2)n1`, the EC50 is 55 µM in [1] (setting [24]) and 110 uM l-1 in assay [7]. Moreover, the Ratio in [14] worked out at 2.
Turning to `CCCNc1nc(C)nc(O)c1C#N`, the EC50 in assay [1] (setting [24]) came out at 1.9 µM; in [7] (Felis catus, read-out: EC50), 17 µM. For the same compound, the Ratio in assay [14] amounted to 9.
For the compound `Cc1nc(S)c(C#N)c(NCc2cccnc2)n1`, the EC50 in assay [1] (setting [24]) was determined as 14 µM; in assay [7] (Felis catus, read-out: EC50), 80 µM. The Ratio in [14] is given as 6.
For the compound `CCNc1nc(C)nc(O)c1[N+](=O)[O-]`, the results for the EC50 in assay [1] (setting [24]) and in [7] were 25 µM and 230 uM l-1, respectively. For the same compound, the Ratio in [14] was found to be 9.
On to `Cc1[nH]c(=O)c(C#N)cc1-c1ccncc1` [MILRINONE], for which the ED20 worked out at 0.048 mg/kg in [5] and 0.1 mg/kg in assay [17]. Further, the values for the half-inhibitory concentration (IC50) in assay [6] and in [11] were 28 µM and 192 µM, respectively. Also, the figures for the EC50 in assay [1] (setting [24]), in assay [7] and in assay [10] were 7.7 µM, ~ 300 uM l-1 and 6.5 µM, respectively. In addition, the figures for the ED50 in assay [19], in assay [4] and in [12] were 0.016 mg/kg, 0.02 mg/kg and 0.04 mg/kg, respectively. Also, the results for the Ratio in assay [20], in assay [21] and in assay [22] were roughly 39, 2.5 and 3, respectively.
Consider `Cc1nc(Cl)c(C#N)c(NCc2cccnc2)n1`, for which the EC50 entry in assay [15] and in [16] was “Not Active” each time.
Take `CC(=O)c1c(O)nc(C)nc1NCc1cccnc1`: the EC50 result in assay [15] and in [16] was “Not Active” each time.
For `CCNc1nc(C)nc(O)c1C#N`, the ED20 is 0.37 mg/kg in assay [5] and 0.07 mg/kg in [17]. The EC50 is 2.6 µM in assay [1] (setting [24]) and 300 uM l-1 in assay [7]. Also, the Ratio was 1.4 and 1.2 in [22]; 115 in assay [14]. Further, the figures for the median effective dose (ED50) in [12] and in [13] were 0.06 mg/kg and 0.027 mg/kg, respectively.
On to `CCNc1nc(C)nc(O)c1C(C)=O`, for which the EC50 result in [15] and in assay [16] was “Not Active” in each case.
Regarding `Cc1nc(O)c([N+](=O)[O-])c(NCc2cccnc2)n1`, the results for the EC50 in assay [1] (setting [24]) and in assay [7] were 5.3 µM and greater than 1000 uM l-1, respectively. For the same compound, in [14], the Ratio is given as greater than 189.
On to `N#Cc1c(O)nc(-c2ccccc2)nc1NCc1cccnc1`, for which the EC50 entry in assay [15] and in assay [16] was “Not Active” each time.
`CCc1nc(O)c(C#N)c(NCc2cccnc2)n1`: the EC50 in assay [1] (setting [24]) worked out at 5.5 µM; in assay [7] (Felis catus, read-out: EC50), 86 µM. Moreover, the Ratio in [14] is 16.
As for `Cc1nc(O)c(C#N)c(NCCc2ccncc2)n1`, the values for the EC50 in assay [1] (setting [24]) and in assay [7] were 6.5 µM and 396 uM l-1, respectively. Further, the Ratio in [14] came out at 61.
For `CSc1nc(C)nc(NCc2cccnc2)c1C#N`, the EC50 entry in assay [15] and in assay [16] was “Not Active” each time.
Regarding `Cc1nc(O)c(C#N)c(NCCc2ccccn2)n1`, the EC50 in assay [1] (setting [24]) was determined as 37 µM; in [7] (Felis catus, read-out: EC50) it was 71 µM. The Ratio in assay [14] worked out at 2.
On to `N#Cc1c(O)nc(O)nc1NCc1cccnc1`, for which the EC50 entry in assay [15] and in assay [16] was “Not Active” in each case.
For the compound `Cc1nc(O)c(C#N)c(NCc2ccco2)n1`, the EC50 in [1] (setting [24]) came to 10 µM; in assay [7] (Felis catus, read-out: EC50) it was 88 µM. Besides, in assay [14], the Ratio came out at 8.8.
For `N#Cc1c(O)nc(Cc2ccccc2)nc1NCc1cccnc1`, the EC50 in assay [1] (setting [24]) is 72 µM; in assay [7] it was ~ 1000 uM l-1. In addition, the Ratio in assay [14] is 14.
On to `Cc1nc(O)c(C#N)c(NCc2ccncc2)n1`, for which the EC50 was found to be 4.4 µM in assay [1] (setting [24]) and 250 uM l-1 in assay [7]. The Ratio in assay [14] is on record as 57.
